Source: patent US5814649A, “Preventive and remedy for type 1 allergic diseases” (priority 1994, dated 1998)

Experiments:
[1] = tested on: OVA-sensitized rat anaphylactic models; experiment: Survival of OVA-sensitized BN rats after anaphylactic shock induced by OVA (Example 1); type: in vivo, BN/Crj rats (female); conditions: for Survival Rate: day 0 to 9, OVA challenge day 10
Method: (§1) Using female BN/Crj rats of 7 weeks old, sensitization by OVA was carried out as described below.
(§2) 10 mg/kg of OVA and 300 mg/kg of aluminum hydroxide (Alum) were intraperitoneally given (10 ml/kg) on the day (day 0) of administration. On day 3, 7 and 9 after the sensitization, blood samples were collected, the serum was separated and IgE concentration was determined. On day 10 after the sensitization, 60 mg/kg of OVA dissolved in physiological saline was given to the rats from the tail vein to cause anaphylactic shock. On the other hand, blood samples were collected at the jugular vein before and after the induction of the anaphylactic shock by OVA, and, after separation of the plasma, histamine level was determined.
(§3) The drug suspended in 1% carboxymethylcellulose (CMC) was repeatedly given orally once a day from day 0 to 9. […] All animals in each group were weighed in the morning once a week and the drug was given upon the body weights as weighed. To the solvent control group was given a 1% CMC solution. And further, non-medicated groups and non-treated groups were prepared. No treatment was applied to the non-treated group. The test was carried out using 6 rats per group.
(§4) The effect of the anilide compounds (I) on BN rats was evaluated from the survival rates of BN rats, the IgE levels in the sera and the histamine levels in the plasma before and after the induction of anaphylactic shock by OVA.

[2] = tested on: histamine; experiment: Plasma histamine level before and after induction of anaphylactic shock by OVA (Example 1); type: in vivo, BN/Crj rats (female); conditions: 10 mg/kg orally once a day, ± SD; for Histamine amount, after OVA challenge: day 10, after OVA challenge; for Histamine amount, before OVA challenge: day 10, before OVA challenge
Method: as §1, §2, §3
Then, the plasma histamine levels before and after the induction of the anaphylactic shock by OVA on day 10 after OVA sensitization were determined as a parameter for allergic reactions.

[3] = tested on: IgE; experiment: Serum IgE level of OVA-sensitized BN rats by sandwich-type ELISA (Example 1); type: in vivo, BN/Crj rats (female); conditions: day 9 after OVA sensitization, mean ± SD
Method: as §1, §2, §3, §4
The IgE level in sera was determined using the homemade sandwich-type ELISA system.

[4] = tested on: autoimmune diseases such as articular rheumatism, systemic lupus erythematosus and the like; conditions: diseased animal models; cited from earlier work
[5] = after administration; cited from earlier work
[6] = tested on: IgE; experiment: Minimum effective dose of leflunomide: serum IgE level of OVA-sensitized BN rats (Example 2); type: in vivo, BN/Crj rats (female); conditions: for Serum IgE amount: day 9 after OVA, ± SD
Method: (§5) Using female BN/Crj rats of 7 weeks old, sensitization by OVA was carried out as described below. 10 mg/kg of OVA and 300 mg/kg of aluminum hydroxide (Alum) were intraperitoneally given on the day (day 0) of administration. Blood samples were collected on day 3, 5, 7 and 9 after the sensitization, the serum was separated and IgE concentration was determined. And, 60 mg/kg of the OVA dissolved in physiological saline was given to the rats from the tail vein to cause anaphylactic shock.
(§6) The drug suspended in 1% carboxymethylcellulose (CMC) was repeatedly given orally once a day from day 0 to 9. […] All animals in each group were weighed in the morning once a week and the drug was given upon the body weights as weighed. A 1% CMC solution was given to the solvent control group. And further, non-treated group was prepared as control to which no treatment was applied. The test was carried out using 6 rats per group.

[7] = tested on: OVA-sensitized rat anaphylactic models; experiment: Minimum effective dose of leflunomide: survival of OVA-sensitized BN rats after anaphylactic shock (Example 2); type: in vivo, BN/Crj rats (female); conditions: for Survival Rate: day 0 to 9
Method: as §5, §6

[8] = tested on: mice; conditions: cited from earlier work
[9] = tested on: mast cells; conditions: cited from earlier work
[10] = leflunomide 0.5 mg/kg orally once a day
[11] = leflunomide 1 mg/kg orally once a day
[12] = leflunomide 2 mg/kg orally once a day

## C#CCCC(=O)C(C#N)C(=O)Nc1ccc(C(F)(F)F)cc1 (centres unmarked) [Compound E, 2-cyano-3-oxo-N-[4-(trifluoromethyl)phenyl]-6-heptinamide]
[1]; 10 mg/kg orally once a day
  Survival Rate: 100%
[2]
  Histamine amount, after OVA challenge: 0.1 ± 0.0 µM
  Histamine amount, before OVA challenge: 0.3 ± 0.1 µM
[3]; 10 mg/kg orally once a day
  IgE amount in sera: 0.4 ± 0.1 µg/mL

## N#Cc1ccc(NC(=O)C(C#N)C(=O)C2CC2)cc1 (centres unmarked) [Compound D, 2-cyano-3-cyclopropyl-3-oxo-(4-cyanophenyl) propionamide]
[1]; 10 mg/kg orally once a day
  Survival Rate: 100%
[2]
  Histamine amount, after OVA challenge: 0.6 ± 0.5 µM
  Histamine amount, before OVA challenge: 0.4 ± 0.2 µM
[3]; 10 mg/kg orally once a day
  IgE amount in sera: 0.6 ± 0.1 µg/mL

## C[C@]12C=CC(=O)C=C1CC[C@@H]1[C@@H]2[C@@H](O)C[C@@]2(C)[C@H]1CC[C@]2(O)C(=O)CO [Prednisolone]
[1]; 2 mg/kg orally once a day
  Survival Rate: 0%
[3]; 2 mg/kg orally once a day
  IgE amount in sera: 148.1 ± 72.0 µg/mL
[3]; 2 mg/kg orally once a day, listed as prednisolone
  IgE amount in sera: 148.1 µg/mL

## CN(C(=O)C(C#N)C(=O)C1CC1)c1ccc(Cl)cc1 (centres unmarked) [Compound C, 2-cyano-3-cyclopropyl-3-oxo-N-methyl-N-(4-chlorophenyl)-propionamide]
[1]; 10 mg/kg orally once a day
  Survival Rate: 100%
[2]
  Histamine amount, after OVA challenge: 0.1 ± 0.0 µM
  Histamine amount, before OVA challenge: 0.3 ± 0.2 µM
[3]; 10 mg/kg orally once a day
  IgE amount in sera: 0.5 ± 0.1 µg/mL

## C/C(O)=C(\C#N)C(=O)Nc1ccc(C(F)(F)F)cc1 [Compound A, N-(4-trifluoromethylphenyl)-2-cyano-3-hydroxy-crotonamide]
[1]; 10 mg/kg orally once a day
  Survival Rate: 33%
[2]
  Histamine amount, after OVA challenge: 0.1 ± 0.0 µM
  Histamine amount, before OVA challenge: 0.2 ± 0.1 µM
[3]; 10 mg/kg orally once a day
  IgE amount in sera: 0.3 ± 0.0 µg/mL
[4]
  effect on autoimmune diseases: have an effect on autoimmune diseases such as articular rheumatism, systemic lupus erythematosus and the like

## Cc1cc(NC(=O)C(C#N)C(=O)C2CC2)ccc1C(F)(F)F (centres unmarked) [Compound B, 1-(3-methyl-4-trifluoromethylphenylcarbamoyl)-2-cyclopropyl-2-oxo-propionitrile]
[1]; 10 mg/kg orally once a day
  Survival Rate: 100%
[2]
  Histamine amount, after OVA challenge: 1.3 ± 1.8 µM
  Histamine amount, before OVA challenge: 0.4 ± 0.1 µM
[3]; 10 mg/kg orally once a day
  IgE amount in sera: 0.6 ± 0.5 µg/mL

## Cc1oncc1C(=O)Nc1ccc(C(F)(F)F)cc1 [Leflunomide, 5-methylisoxazole-4-carboxylic acid-N-(4-trifluoromethyl) anilide]
[1]; 2 mg/kg
  survival without anaphylactic shock: all animals survived without any anaphylactic shock
[1]; 2 mg/kg orally once a day
  Survival Rate: 100%
[5]
  conversion to pharmacologically active Compound A: converted to pharmacologically active Compound A as defined above by rapid metabolism after administration
[6]; after antigen sensitization
  inhibition of increase in serum IgE level: can inhibit an increase in the serum IgE level after the antigen sensitization
[6]; [10]
  Serum IgE amount: 357.7 ± 119.0 µg/mL
[6]; leflunomide 0.5 mg/kg orally once a day, listed as leflunomide
  Serum IgE amount: 357.7 µg/mL
[6]; [11]
  Serum IgE amount: 0.8 ± 0.1 µg/mL
[6]; leflunomide 1 mg/kg orally once a day, listed as leflunomide
  Serum IgE amount: 0.8 µg/mL
[6]; [12]
  Serum IgE amount: 0.4 ± 0.1 µg/mL
[6]; leflunomide 2 mg/kg orally once a day, listed as leflunomide
  Serum IgE amount: 0.4 µg/mL
[7]; [10]
  Survival Rate: 0%
[7]; leflunomide 1 mg/kg
  survival without anaphylactic shock: all animals survived without any anaphylactic shock
[7]; [11]
  Survival Rate: 100%
[7]; leflunomide 2 mg/kg
  survival without anaphylactic shock: all animals survived without any anaphylactic shock
[7]; [12]
  Survival Rate: 100%
[8]
  LD50 (p.o.): 445 mg/kg
[9]
  inhibitory effect on histamine-release from mast cells: has an inhibitory effect on histamine-release from mast cells
[3]; 2 mg/kg orally once a day
  IgE amount in sera: 0.4 ± 0.1 µg/mL
[3]; 2 mg/kg orally once a day, listed as leflunomide
  IgE amount in sera: 0.4 µg/mL
[4]
  effect on autoimmune diseases: have an effect on autoimmune diseases such as articular rheumatism, systemic lupus erythematosus and the like
